Structures are written as SMILES.

The target in this assay is T1, Human Kv1.5 channels (Homo sapiens, UniProt P22460).
T1 construct: expressed in transfected cells; host or cells: Xenopus laevis oocytes injected with in vitro synthesized Kv1.5-encoding RNA
T1 sequence (P22460 whole entry): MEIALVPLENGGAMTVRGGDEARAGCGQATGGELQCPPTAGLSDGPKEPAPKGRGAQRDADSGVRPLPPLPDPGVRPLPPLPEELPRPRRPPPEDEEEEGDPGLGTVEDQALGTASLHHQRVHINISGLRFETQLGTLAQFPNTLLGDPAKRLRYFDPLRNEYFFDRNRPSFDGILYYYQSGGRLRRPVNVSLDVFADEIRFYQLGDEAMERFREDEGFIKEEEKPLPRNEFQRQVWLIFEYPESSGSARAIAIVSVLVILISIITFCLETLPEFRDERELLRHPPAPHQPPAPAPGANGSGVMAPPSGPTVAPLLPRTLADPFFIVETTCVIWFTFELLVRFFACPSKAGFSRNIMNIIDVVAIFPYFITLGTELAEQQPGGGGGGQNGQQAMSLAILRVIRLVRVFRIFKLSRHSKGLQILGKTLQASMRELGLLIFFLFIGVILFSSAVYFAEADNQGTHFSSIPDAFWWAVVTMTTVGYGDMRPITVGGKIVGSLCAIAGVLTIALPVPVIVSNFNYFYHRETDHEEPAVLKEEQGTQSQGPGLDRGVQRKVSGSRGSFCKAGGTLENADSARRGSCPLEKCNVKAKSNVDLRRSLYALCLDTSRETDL
Description: Kv1.5 currents in Xenopus oocytes, two-microelectrode voltage clamp. Particulars: human Kv1.5 expressed in Xenopus laevis oocytes; voltage jumps 500 ms to 0 mV and 40 mV; room temperature; Hill equation. The assay is classed as cell-based. The procedure:
Human Kv1.5 channels were expressed in Xenopus oocytes. For this purpose, firstly ooytes were isolated from Xenopus laevis and were defolliculated. Kv1.5-encoding RNA which had been synthesized in vitro was then injected into these oocytes. After 1-7 days of Kv1.5 protein expression, the Kv1.5 currents were measured on the oocytes by the two-microelectrode voltage clamp technique. The Kv1.5 channels were for this purpose usually activated with voltage jumps lasting 500 ms to 0 mV and 40 mV. A solution of the following composition flowed through the bath: NaCl 96 mM, KCl 2 mM, CaCl2 1.8 mM, MgCl2 1 mM, HEPES 5 mM (titrated to pH 7.4 with NaOH). These experiments were carried out at room temperature. The following were employed for data acquisition and analysis: geneclamp amplifier (Axon Instruments, Foster City, USA) and MacLab D/A converter and software (ADInstruments, Castle Hill, Australia). The compounds of the invention were tested by adding them in various concentrations to the bath solution. The effects of the compounds were calculated as percentage inhibition of the Kv1.5 control current which was obtained when no compound was added to the solution. The data were then extrapolated using the Hill equation in order to determine the inhibitory concentrations IC50 for the respective compounds.
Compound `C[C@H](NC(=O)c1cc(Cl)ccc1NS(=O)(=O)c1ccccc1)c1ccccc1` [Example 1, (S)-2-Phenylsulfonylamino-5-chloro-N-(1-phenylethyl)benzamide] had an IC50 of 5.5 µM. In other words, the single-digit micromolar range.

`C[C@@H](NC(=O)c1cc(Cl)ccc1NS(=O)(=O)c1ccccc1)c1ccccc1` [Example 2, (R)-2-Phenylsulfonylamino-5-chloro-N-(1-phenylethyl)benzamide] had an IC50 of 8.2 µM.

`CC[C@H](NC(=O)c1cc(Cl)ccc1NS(=O)(=O)c1ccccc1)c1ccccc1` [Example 3, (S)-2-Phenylsulfonylamino-5-chloro-N-(1-phenylpropyl)benzamide] displayed an IC50 of 2.8 µM.

`CC[C@@H](NC(=O)c1cc(Cl)ccc1NS(=O)(=O)c1ccccc1)c1ccccc1` [Example 4, (R)-2-Phenylsulfonylamino-5-chloro-N-(1-phenylpropyl)benzamide] came in with an IC50 of 4.1 µM.

`COc1ccc([C@H](C)NC(=O)c2cc(Cl)ccc2NS(=O)(=O)c2ccccc2)cc1` [Example 5, (S)-2-Phenylsulfonylamino-5-chloro-N-[1-(4-methoxyphenyl)ethyl]-benzamide] yielded an IC50 of 4.5 µM.

The compound `COc1ccc([C@@H](C)NC(=O)c2cc(Cl)ccc2NS(=O)(=O)c2ccccc2)cc1` [Example 6] showed a half-inhibitory concentration (IC50) of 8.2 µM.

`O=C(NC(c1ccccc1)c1ccccn1)c1cc(Cl)ccc1NS(=O)(=O)c1ccccc1` (centres unmarked) [Example 7, 2-Phenylsulfonylamino-5-chloro-N-(phenylpyridin-2-ylmethyl)benzamide] registered an IC50 of 5.1 µM. This IC50 is about 1.6-fold lower than that of the compound before.

In the case of `Cc1ccc(S(=O)(=O)Nc2ccccc2C(=O)N(Cc2ccccc2)Cc2cccnc2)cc1` [Example 8, N-Benzyl-N-pyridin-3-ylmethyl-2-(toluene-4-sulfonylamino)benzamide], the IC50 was 0.9 µM.

The compound `COc1ccc(S(=O)(=O)Nc2cc(C)ccc2C(=O)NC(C)c2ccccc2)cc1` (centres unmarked) [Example 9] showed an IC50 of 4.9 µM.

For the compound `CCC(NC(=O)c1cccc(C)c1NS(=O)(=O)c1ccc(Cl)cc1)c1ccccc1` (centres unmarked) [Example 10], half-maximal inhibition (IC50) was put at 2.5 µM.

`CCN(C(=O)c1ccccc1NS(=O)(=O)c1ccc(Cl)cc1)C1CCCCC1` [Example 11] registered an IC50 of 8 µM.

For `CCN(C(=O)c1ccccc1NS(=O)(=O)c1ccc(C)cc1)C1CCCCC1` [Example 12], the IC50 was found to be 5.4 µM.

Regarding `Cc1ccc(S(=O)(=O)Nc2ccc(F)cc2C(=O)NC2CCCCC2)cc1` [Example 14], the IC50 came to 8.5 µM.

Compound `CCN(C(=O)c1cc(F)ccc1NS(=O)(=O)c1ccc(C)cc1)C1CCCCC1` [Example 15] yielded an IC50 of 7.8 µM.

Compound `CCN(C(=O)c1cc(Cl)ccc1NS(=O)(=O)c1ccc(C)cc1)C1CCCCC1` [Example 16] displayed an IC50 of 6.4 µM. This IC50 and that of the compound before are within 1.5-fold of each other.

In turn, `O=C(NC1CCCCC1)c1cc(Cl)ccc1NS(=O)(=O)c1ccccc1` [Example 17] yielded an IC50 of 7.5 µM.

Compound `CCN(C(=O)c1cc(Cl)ccc1NS(=O)(=O)c1ccccc1)C1CCCCC1` [Example 18] registered an IC50 of 6.7 µM. This IC50 and that of the compound before are within 1.5-fold of each other.

The compound `COc1ccc(S(=O)(=O)Nc2c(C)cccc2C(=O)NC(C)c2ccccc2)cc1` (centres unmarked) [Example 19] had an IC50 of 4.2 µM.

As for `CCCCS(=O)(=O)Nc1cc(C)ccc1C(=O)NC1CCCCC1` [Example 20], the IC50 was determined as 7.7 µM.

In turn, `Cc1ccc(NS(=O)(=O)c2ccccc2)c(C(=O)NC2CCCCC2)c1` [Example 21] showed an IC50 of 5.2 µM.

In turn, `Cc1cccc(NS(=O)(=O)c2ccc(Cl)cc2)c1C(=O)NC1CCCCC1` [Example 22] came in with an IC50 of 4.8 µM.

`Cc1cccc(NS(=O)(=O)c2ccc(Cl)cc2)c1C(=O)NC(C)c1ccccc1` (centres unmarked) [Example 23] had an IC50 of 5 µM.

Compound `CCC(NC(=O)c1c(C)cccc1NS(=O)(=O)c1ccc(Cl)cc1)c1ccccc1` (centres unmarked) [Example 24] showed an IC50 of 3 µM.

Consider `COc1ccc(S(=O)(=O)Nc2cc(C)ccc2C(=O)NC2CCCCC2)cc1` [Example 25], for which the IC50 was found to be 3.4 µM.

`CCC(NC(=O)c1cc(OC)ccc1NS(=O)(=O)c1ccc(C)cc1)c1ccccc1` (centres unmarked) [Example 26] showed an IC50 of 0.6 µM.

Compound `COc1ccc(NS(=O)(=O)c2ccc(C)cc2OC)c(C(=O)NC2CCC(C)CC2)c1` (centres unmarked) [Example 27] returned a half-inhibitory concentration (IC50) of 5.6 µM.

Take `Cc1ccc(S(=O)(=O)Nc2ccccc2C(=O)NC(C)c2ccccc2)cc1` (centres unmarked) [Example 28]: the IC50 amounted to 3.2 µM.

In the case of `COc1cc(C)ccc1S(=O)(=O)Nc1ccc(Cl)cc1C(=O)NCCOCc1ccccc1` [Example 29], the 50% inhibitory concentration (IC50) was 5.1 µM.

For the compound `Cc1ccc(S(=O)(=O)Nc2ccccc2C(=O)N(Cc2ccccc2)Cc2nccn2C)cc1` [Example 30], the IC50 is 0.7 µM.

Regarding `Cc1ccc(S(=O)(=O)Nc2ccccc2C(=O)N(Cc2ccccc2)CC2CCCCC2)cc1` [Example 31], the IC50 is 2.6 µM.

As to `Cc1ccc(S(=O)(=O)Nc2ccccc2C(=O)N(CCCn2ccnc2)Cc2ccccc2)cc1` [Example 32], the IC50 turned out to be 8.5 µM.

`Cc1ccc(S(=O)(=O)Nc2ccccc2C(=O)N(Cc2ccccc2)Cc2ccncc2)cc1` [Example 33]: it took 6.5 µM to reach half-maximal inhibition (IC50).

The compound `Cc1ccc(S(=O)(=O)Nc2ccccc2C(=O)N(Cc2cccnc2)CC2CC2)cc1` [Example 34] had an IC50 of 3.1 µM.

In turn, `Cc1ccc(S(=O)(=O)Nc2ccccc2C(=O)N(Cc2ccccc2)Cc2nc3ccccc3[nH]2)cc1` [Example 35] yielded an IC50 of 2 µM. This IC50 lies about 1.6-fold lower than the previous one.

Compound `Cc1ccc(S(=O)(=O)Nc2ccccc2C(=O)N(Cc2ccccc2)Cc2ccc(C)o2)cc1` [Example 36] registered an IC50 of 2 µM.

In turn, `Cc1ccc(S(=O)(=O)Nc2ccccc2C(=O)N(Cc2ccccc2)CC2CC2)cc1` [Example 37] came in with an IC50 of 1.9 µM.

`Cc1ccc(S(=O)(=O)Nc2ccccc2C(=O)N(Cc2ccccc2)Cc2ccco2)cc1` [Example 38]: the IC50 was 1.6 µM.

For `Cc1ccc(S(=O)(=O)Nc2ccccc2C(=O)N(CCCn2ccnc2C)Cc2ccccc2)cc1` [Example 39], the IC50 is more than 10 µM.

On to `Cc1ccc(S(=O)(=O)Nc2cc(C)ccc2C(=O)N(Cc2ccccc2)Cc2nccn2C)cc1` [Example 40], for which the 50% inhibitory concentration (IC50) stood at 0.8 µM.

With `COc1ccc(NS(=O)(=O)c2ccc(C)cc2)c(C(=O)N(Cc2ccccc2)Cc2nccn2C)c1` [Example 41], the concentration for half-maximal inhibition (IC50) turned out to be 1.9 µM.

In turn, `Cc1ccc(S(=O)(=O)Nc2ccccc2C(=O)N(CCc2ccccn2)CC2CC2)cc1` [Example 42] returned an IC50 of 5 µM.

`COc1ccc(NS(=O)(=O)c2cccc(C(F)(F)F)c2)c(C(=O)N(Cc2ccccc2)Cc2nccn2C)c1` [Example 43] yielded an IC50 of 5.4 µM.

In the case of `O=C(c1ccccc1NS(=O)(=O)c1ccc(Cl)cc1)N(Cc1ccccc1)Cc1cccnc1` [Example 44], half-maximal inhibition (IC50) required 2.9 µM.

Regarding `Cc1ccc(S(=O)(=O)Nc2ccc(Cl)cc2C(=O)N(Cc2ccccc2)Cc2cccnc2)cc1` [Example 45], the midpoint of inhibition, the IC50, lay at 2.5 µM.

The compound `Cc1ccc(S(=O)(=O)Nc2ccc(F)cc2C(=O)N(Cc2ccccc2)Cc2cccnc2)cc1` [Example 46] had an IC50 of 1.2 µM.

For `COc1ccc(S(=O)(=O)Nc2cccc(C)c2C(=O)N(Cc2ccccc2)Cc2cccnc2)cc1` [Example 47], the concentration for half-maximal inhibition (IC50) came out at 4.7 µM.

The compound `Cc1ccc(S(=O)(=O)Nc2ccccc2C(=O)N(Cc2ccncc2)CC2CC2)cc1` [Example 48] gave an IC50 of more than 10 µM.

Turning to `Cc1ccc(S(=O)(=O)Nc2ccccc2C(=O)N(CCc2cccnc2)CC2CC2)cc1` [Example 49], inhibition was half-maximal at 6.3 µM (IC50).

`COc1ccc(S(=O)(=O)Nc2ccccc2C(=O)N(Cc2ccccc2)Cc2cccnc2)cc1` [Example 50] displayed an IC50 of 0.7 µM.

`CCC(Cc1ccccc1)NC(=O)c1cc(OC)ccc1NS(=O)(=O)c1ccc(C)cc1` (centres unmarked) [Example 51]: the midpoint of inhibition, the IC50, lay at 3.6 µM.

Consider `CCC(Cc1ccccc1)NC(=O)c1ccccc1NS(=O)(=O)c1ccccc1` (centres unmarked) [Example 52], for which half-maximal inhibition (IC50) required 3 µM. The IC50 values of the last two compounds are within 1.5-fold of each other.

For `CCC(NC(=O)c1cc(OC)ccc1NS(=O)(=O)c1ccc(C)cc1)c1ccncc1` (centres unmarked) [Example 53], the IC50 came to 2.5 µM.

`CCCCS(=O)(=O)Nc1ccc(C)cc1C(=O)NC1CCCCC1` [Example 54, 2-(Butylsulfonylamino)-N-cyclohexyl-5-methylbenzamide] displayed an IC50 of 4 µM.

The compound `CCCCS(=O)(=O)Nc1ccc(C)cc1C(=O)NC(C)c1ccccc1` (centres unmarked) [Example 55] came in with an IC50 of 4.6 µM.

`CCCCS(=O)(=O)N(CC)c1ccccc1C(=O)N[C@@H](CC)c1ccccc1` [Example 57] showed an IC50 of 5 µM.

As for `CCCCS(=O)(=O)Nc1ccccc1C(=O)N[C@@H](CC)c1ccccc1` [Example 58], the IC50 is more than 10 µM.

For `CC[C@H](NC(=O)c1ccccc1NS(=O)(=O)c1cccc(C)c1)c1ccccc1` [Example 59], the midpoint of inhibition, the IC50, lay at 1.7 µM.

`CC[C@H](NC(=O)c1ccccc1NS(=O)(=O)c1ccc(C)cc1)c1ccccc1` [Example 60] returned an IC50 of 0.7 µM.

As for `CC[C@H](NC(=O)c1ccccc1NS(=O)(=O)c1ccc2ccccc2c1)c1ccccc1` [Example 61], half-maximal inhibition (IC50) was put at 5.6 µM. This IC50 lies about 8-fold higher than the previous one.

Turning to `CC[C@H](NC(=O)c1ccccc1NS(=O)(=O)c1cccc2ccccc12)c1ccccc1` [Example 62], the midpoint of inhibition, the IC50, lay at 3.5 µM. This IC50 lies about 1.6-fold lower than the previous one.

`CC[C@H](NC(=O)c1ccccc1NS(=O)(=O)c1cccc(OC)c1)c1ccccc1` [Example 63] gave an IC50 of 1.7 µM.

`CC[C@H](NC(=O)c1ccccc1NS(=O)(=O)c1ccc(OC)cc1)c1ccccc1` [Example 64] yielded an IC50 of 0.6 µM.

As a reminder, the IC50 is the concentration at which inhibition is half-maximal.

For the origin of these results see US7332608B2, “Anthranilamides and methods of their use” (SANOFI-AVENTIS Deutschland GmbH, priority 2001, dated 2008).
